Results taken from US10617662B2, “Autophagy activation-induced compound for improving skin inflammation for aging” (INCOSPHARM CORPORATION, priority 2017, dated 2020).

Columns and labels:
[1] = tested on: IL-36G (interleukin 36, gamma); test: RT-PCR of psoriasis-related gene IL-36G; format: cell-based, human; conditions: HEKa cells, 20 uM, FIGS. 2 and 3
Description: (§1) A psoriasis-related genes were selected from the cDNA array result in which Compound 8 of the present invention was treated in HaCaT cells. In order to analyze whether Compound 8 has an effect on psoriasis alleviation, RT-PCR analysis for IL-36′ (interleukin 36 gamma), KLK7 (Kallikrein-related peptidase 7), OASL (2′-5′-Oligoadenylate Synthetase Like) and ALOX12B (Arachidonate 12-lipoxygenase, 12R type) which are very closely related to psoriasis was carried out. Further, KRT16 (Keratin 16), KRT6 (Keratin 6) and KRT1 (Keratin 1), known as psoriasis-related proliferation, differentiation markers were confirmed by a western blot analysis. As the specific experimental method, HEKa cells (Human Epidermal keratinocytes, adult), human-derived epidermal keratinocytes were seeded on a 24 well plate at a density of 1×10^5 cells, and cultured in an EpiLife medium (1× Human keratinocyte Growth supplement, 1× antibiotics) in an incubator under 37° C. and 5% CO2 for 24 hours. […]

KRT6 (Keratin 6) = test: Western blot of proliferative marker KRT6; format: cell-based, human; conditions: FIG. 4
Description: as §1

KRT16 (Keratin 16) = test: Western blot of proliferative marker KRT16; format: cell-based, human; conditions: FIG. 4
Description: as §1

[2] = tested on: OASL (2′-5′-Oligoadenylate Synthetase Like); test: RT-PCR of psoriasis-related gene OASL; format: cell-based, human; conditions: HEKa cells, 20 uM, FIGS. 2 and 3
Description: as §1

IL-8 (interleukin-8) = test: Cytokine gene expression, IL-8, IL-17A/TNF-α condition; format: cell-based, human; conditions: FIG. 9
[3] = tested on: ALOX12B (Arachidonate 12-lipoxygenase, 12R type); test: RT-PCR of psoriasis-related gene ALOX12B; format: cell-based, human; conditions: HEKa cells, 20 uM, FIGS. 2 and 3
Description: as §1

[4] = tested on: psoriasis animal model induced by imiquimod 5% cream; test: Psoriasis animal model, H&E staining of back tissue; format: in vivo, BALB/c mice; conditions: FIG. 15
Description: (§2) In order to confirm the psoriasis treatment effect by Compound 8 of the present invention, dorsal hair of 8-week-old BALB/c mice (female) was removed using hair removal cream (Veet®, Oxy Reckitt Benckiser, Cedex, France), and subsequently imiquimod 5% cream (Aldara®; 3M Pharmaceuticals, UK; 62.5 mg) was applied on the back and both ears of the mice twice in the morning and in the afternoon (Sensitization; Day 0). Then, after a barrier recovery period of 2 days, imiquimod 5% cream (62.5 mg/day) was applied repeatedly for 7 days (Induction stage; Day 2 -Day 8), thereby inducing the psoriasis animal model.
After inducing the psoriasis animal model, Compound 8 of the present invention dissolved in ethanol (0.5%) and cream containing Compound 8 of the present invention (The same composition as that of the cosmetic composition of Example 14 except that it contained 0.5% by weight of Compound 8) were applied on the back once in the morning for 5 days (Treatment Stage; Day 8-Day 12). An untreated control group and a disease control group (vehicle) were treated with cream not containing Compound 8 of the present invention (cosmetic composition of Comparative Example 2) and ethanol, and during the treatment period, imiquimod 5% cream was applied thereon every other day, thereby maintaining psoriasis. […]

[5] = tested on: ULK-1 (Serine/threonine-protein kinase-1); test: Western blot for ULK-1 protein; format: cell-based, human; conditions: HaCaT cells; 20 uM dilution, 1 ml added to 1 ml medium; FIG. 1
Description: In order to analyze which gene expression is related to increased autophagy activation by Compound 8 of the present invention, a western blot analysis for Beclin-1 and ULK-1 (Serine/threonine-protein kinase-1) proteins which are closely related to autophagy activation was performed.
As a specific experimental method, HaCaT cells, human-derived keratinocytes were seeded on a 60Ø dish at a density of 3×10^5 cells, and cultured in DMEM (Dulbecco's Modified Eagle Media, Gibco BRL) in an incubator under 37° C. and 5% CO2 for 24 hours. Compound 8 of the present invention was dissolved in DMSO at a concentration of 10 mM each to be a concentrate, and diluted with a medium to be at a concentration of 20 uM. Then in a state where 1 ml of medium was first in each well, 1 ml of each diluted solution was added thereto for treatment, and cultured for a certain period, and after completing the culturing, the medium was removed, and then cells were disrupted with a SDS sample buffer, and each protein was separated by SDS-PAGE gel electrophoresis, and transferred to a PVDF membrane. […]

[6] = tested on: psoriasis animal model induced by imiquimod 5% cream; test: Psoriasis animal model, ear thickness; format: in vivo, BALB/c mice; conditions: ears treated together with imiquimod; digital caliper; FIG. 18
Description: as §2
There was no treatment on the left ear of the untreated control group, and the right ear was treated with cream not containing imiquimod and ethanol. The left ear of the experimental groups was treated only with imiquimod and ethanol, whereas the right ear of the experimental groups was treated with either Compound 8 or Compound 8 cream of the present invention together with imiquimod, and such method is specifically shown in FIG. 12.
When the animals were slaughtered, the thickness of the central part of both ears was measured using a digital caliper (Digital caliper, Marathon Inc. Belleville, ON, Canada).

IL-20 (interleukin-20) = test: Cytokine gene expression, IL-20, TNFα/IFN-γ induced inflammatory condition; format: cell-based, human; conditions: FIG. 8
[7] = tested on: IL-36γ (interleukin 36, gamma); test: Cytokine gene expression, IL-36γ, IL-17A/TNF-α condition; format: cell-based, human; conditions: FIG. 9

## CCCCCCCCCCCCCCCC(=O)NCCCC[C@H](NC(=O)[C@H](CCCCN(CC(=O)O)CC(=O)O)N(CC(=O)O)CC(=O)O)C(=O)O [Compound 8]
[1]
  expression level of IL-36G gene: significantly decreased
KRT6 (Keratin 6)
  KRT6 (proliferative marker) level: reduced
KRT16 (Keratin 16)
  KRT16 (proliferative marker) level: reduced
[2]
  expression level of OASL gene: significantly decreased
IL-8 (interleukin-8)
  expression level of IL-8: reduced
[3]
  expression level of ALOX12B gene: significantly decreased
[4]
  thickness of stratum corneum: significantly reduced
[5]
  expression of ULK-1 protein: significantly increased
[6]
  thickness of the right (treated) ear compared with the left ear treated with 5% imiquimod and ethanol: significant thickness reduction
IL-20 (interleukin-20)
  expression level of IL-20: reduced
[7]
  expression level of IL-36γ: reduced
